The target in data set [1] is T1, androgen receptor (Homo sapiens, UniProt P10275).
T1 sequence (P10275 1-920): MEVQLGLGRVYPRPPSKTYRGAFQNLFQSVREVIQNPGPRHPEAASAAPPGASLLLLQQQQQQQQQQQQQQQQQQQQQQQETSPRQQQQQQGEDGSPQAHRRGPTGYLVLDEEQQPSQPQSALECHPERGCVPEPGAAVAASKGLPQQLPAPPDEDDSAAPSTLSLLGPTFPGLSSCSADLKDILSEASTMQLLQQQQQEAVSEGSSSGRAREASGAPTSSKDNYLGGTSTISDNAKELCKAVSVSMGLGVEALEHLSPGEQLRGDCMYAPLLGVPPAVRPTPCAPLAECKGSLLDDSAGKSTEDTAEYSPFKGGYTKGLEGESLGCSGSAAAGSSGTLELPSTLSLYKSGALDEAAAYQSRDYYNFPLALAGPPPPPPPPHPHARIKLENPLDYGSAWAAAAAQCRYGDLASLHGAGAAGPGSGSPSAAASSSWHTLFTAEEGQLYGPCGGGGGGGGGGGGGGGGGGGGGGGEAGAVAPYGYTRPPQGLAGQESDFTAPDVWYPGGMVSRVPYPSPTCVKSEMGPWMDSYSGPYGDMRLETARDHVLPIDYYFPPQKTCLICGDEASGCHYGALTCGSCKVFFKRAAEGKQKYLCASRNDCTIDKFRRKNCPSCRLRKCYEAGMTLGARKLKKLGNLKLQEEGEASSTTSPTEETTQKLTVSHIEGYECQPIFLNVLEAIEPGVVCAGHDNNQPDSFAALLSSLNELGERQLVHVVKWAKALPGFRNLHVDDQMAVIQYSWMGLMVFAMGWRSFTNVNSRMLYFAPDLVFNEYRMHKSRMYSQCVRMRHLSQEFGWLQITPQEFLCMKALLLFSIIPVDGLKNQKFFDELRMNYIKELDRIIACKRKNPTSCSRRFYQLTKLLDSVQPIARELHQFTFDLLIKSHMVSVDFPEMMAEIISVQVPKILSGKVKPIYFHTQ
In kind it is cell-based. Also noted: expressed in transfected cells.

Data set [2] addresses T1, androgen receptor. In kind it is cell-based. Further details: expressed in transfected cells. An excerpt: We used a mammalian two-hybrid system to determine specificities of the AR-binding peptides previously identified, through screening of the aforementioned yeast library, as ligand-dependent in their binding activity. Ligand was provided to the cells so the interaction could be observed. The human hepatoma cell line, Huh-7, was used as the recipient of two-hybrid vectors, pM and pVP16 (Clontech) (FIGS. 6A and 6B), containing fusions with peptide and AR, respectively. According to Clontech literature, the Clontech vectors pM and VP16 generate fusions of protein X with the GAL4 DNA-BD and fusions of protein Y with the VP16AD, in the Mammalian MM Two-Hybrid Assay Kit (#K1602-1). (Note: pM and VP16 contain unique cloning sites in the same order and reading frame as the DNA-BD and AD, respectively, vectors in the yeast […] Two-Hybrid Systems.) A third vector, pG5CAT, provides a CAT reporter gene under the control of a GAL4-responsive element and minimal promoter of the adenovirus E1b. The three vectors are cotransfected into any suitable mammalian host cell line by standard methods. The interaction between proteins X and Y is then assayed by measuring CAT gene expression by any standard method. In the absence of activation (i.e., no protein-protein interaction), the minimal E1b promoter will not express significant levels of CAT.
Briefly, cells are seeded in a 24-well culture plate to a density of 50-80% confluence in phenol red-free media containing charcoal-dextran stripped fetal bovine serum (10%). Following incubation overnight, cells are transfected with plasmids pM-peptide, pVP16-AR, pCMV-b-gal, and p5XGAL-Luc3 DNAs using lipofectamine 2000 (LifeTech) according to the manufacturer's protocol. Transfections are allowed to proceed for 6 hours and the transfection media is aspirated and replaced with recovery media for 18 hours. Following the recovery period, cells are treated with compound for 24 hours prior to cell harvesting. Cells are washed with PBS and then lysed using the lysis buffer from the Galacto-Light Plus β-galactosidase assay kit (Tropix). Assays for luciferase and β-galactosidase were performed as described by the manufacturer. Peptide/AR interactions are described in terms of the luciferase activity normalized for transfection efficiency using β-galactosidase activity (see FIG. 4A). Two types of useful information arose from these methods: 1) we generated a panel of useful peptide probes to analyze the conformational state of AR, and 2) we “fingerprinted” AR modulators with respect to AR conformation (FIG. 4B). […] FIG. 4B is the converse of 4A. It compares the ability of six ligands (DHT, MPA, CYP, RU486, FLUT and DHEAs to interact with AR in the presence of each of four peptides (D30, 5G11, B8H3 and […]). Thus, it is a “fingerprint” of each of the six ligands using a four peptide panel. (Note that “1269” and D30” refer to the same peptide.)
The source holds these as a separate data set.

Data set [3] has as its target T1, androgen receptor. Briefly: Yeast two-hybrid screening of unbiased X15 peptide library, ligand induced β-galactosidase activity (FIG. 3, Table 503). It is filed as cell-based. Also noted: expressed in transfected cells; host or cells: Saccharomyces cerevisiae PJ69-4α; ligand induced β-galactosidase activity, No Lig / ligand induced β-galactosidase activity, DHT / ligand induced β-galactosidase activity, CPA / ligand induced β-galactosidase activity, RU / ligand induced β-galactosidase activity, Test / ligand induced β-galactosidase activity, MPA: unit not given here. An excerpt: Our library contained predominantly 15 random amino acid residues/peptide in order to identify motifs that might interact with nuclear receptor domains. If ligand is provided to the cells, one can screen for peptides that interact with the ligand-bound receptor. […] Included at the ends of the oligonucleotide were the synthetic restriction endonuclease cleavage sites, EcoRI or Mfe I (5′ end) and Sal I (3′ end). Oligonucleotides were annealed, then cleaved with excess restriction endonuclease and purified on agarose gels. The purified set of oligonucleotides was subcloned as an in-frame carboxy-terminal fusion to a Gal4 DNA binding domain (plasmid vector pMA424 derivative). […] The transformation mix was divided and grown on plates of selective media containing ligand and 25 mM 3-aminotriazole at 30° C. until colonies appeared in 3-7 days. […] Dihydrotestosterone (DHT) and medroxyprogesterone (MPA) were added to the media at 100 nM to identify peptides that interact with the receptor in the presence of ligand. After colonies appeared they were picked and dispersed into individual wells of a 96-well plate containing rich media (YPD).
To determine ligand dependence, two microliter aliquots were removed from the cell suspension, and arrayed and spotted onto each of two rectangular agar plates, one with 100 nM ligand and one without ligand. Growth was monitored daily.
A secondary test of ligand dependent activation was performed using the integrated GAL4-driven lacZ gene. Cell suspensions of the initial positive clones were diluted 20-fold into 20 microliters of rich media in a microplate and grown overnight at 30° C. in the presence and absence of ligand. Microplates were centrifuged for 5 minutes at 3000 rpm in a swinging table top centrifuge to pellet the yeast cells, and the overlying media was aspirated. […] An OD650 density determination was made to normalize the β-galactosidase activity. β-galactosidase activity was monitored following the addition of buffer containing chlorophenol red-β-galactopyranoside (CPRG) (Boehringer Mannheim) substrate at a final concentration of 0.5 mM. […] The maximum slope value of this measurement was normalized to cell density from the initial OD650 value, and the relative ligand dependence of β-galactosidase was determined by comparing the values plus and minus ligand.
In FIG. 3, all of these ligands were tested. The plasmids from true positives were extracted using standard yeast extraction protocols and re-transformed to verify the positive phenotype.

Data set [4] has as its target T2, ER β (immobilized, in vitro phage assays), Q92731.
T2 chain: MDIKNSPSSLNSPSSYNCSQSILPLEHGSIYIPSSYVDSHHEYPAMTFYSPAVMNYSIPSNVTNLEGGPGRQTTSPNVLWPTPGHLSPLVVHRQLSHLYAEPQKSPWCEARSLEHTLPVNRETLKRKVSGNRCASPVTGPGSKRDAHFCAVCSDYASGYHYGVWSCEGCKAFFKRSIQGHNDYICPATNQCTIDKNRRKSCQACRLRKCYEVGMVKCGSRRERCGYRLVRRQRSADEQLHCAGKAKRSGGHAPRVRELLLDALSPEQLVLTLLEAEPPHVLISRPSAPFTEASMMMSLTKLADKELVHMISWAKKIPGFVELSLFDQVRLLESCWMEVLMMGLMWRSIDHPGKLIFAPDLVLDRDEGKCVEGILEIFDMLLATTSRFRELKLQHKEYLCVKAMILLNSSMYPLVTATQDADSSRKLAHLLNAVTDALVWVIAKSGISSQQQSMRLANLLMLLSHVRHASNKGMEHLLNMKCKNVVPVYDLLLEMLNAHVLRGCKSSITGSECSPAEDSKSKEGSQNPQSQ
The data set is described as follows: phage ELISA; clomiphene 10 µM. A general note: An ELISA detects its analyte on a solid surface through an enzyme-linked reagent.

Data set [5] has as its target T2, ER β (immobilized, in vitro phage …). The data set is described as follows: phage ELISA; ICI 182,780 1 µM.
Data set [6] has the same target. Briefly: phage ELISA; raloxifene 1 µM.
Data set [7] has the same target. The data set is described as follows: phage ELISA; 4-OH tamoxifen 1 µM.

In the case of EFQQCMCAEVKSWLGGSLDLQPS* [B8E9], the “Binding to the androgen receptor in the presence of both agonists and known antagonists” value on androgen receptor [1] (ligand present) was “displays binding”. Besides, the “Binding to the androgen receptor in the absence of ligand” value at androgen receptor [1] (no ligand) is “not”. In addition, at androgen receptor [2], the “luciferase normalized to β-galactosidase, CYP.” value is given as 16.02. Also, the “luciferase normalized to β-galactosidase, DHT” value on androgen receptor [2] (mammalian two-hybrid, Huh-7 cells, ligand DHT) turned out to be 19.64. Further, at androgen receptor [2] (mammalian two-hybrid, Huh-7 cells, ligand MPA), the “luciferase normalized to β-galactosidase, MPA” value stood at 18.51. In addition, the “luciferase normalized to β-galactosidase, RU486” value at androgen receptor [2] (mammalian two-hybrid, Huh-7 cells, ligand RU486) worked out at 10.1916. The “luciferase normalized to β-galactosidase, no compound” value at androgen receptor [2] (mammalian two-hybrid, Huh-7 cells, no compound) is listed as 0.2091. The molecule further registered a Fold induction on androgen receptor [3] (untitled table before Table 503, values match DHT / No Lig of Table 503) of 4. Moreover, the “ligand induced β-galactosidase activity, CPA” value on androgen receptor [3] (yeast two-hybrid, ligand CPA) was 0.5635. Moreover, the “ligand induced β-galactosidase activity, DHT” value at androgen receptor [3] (yeast two-hybrid, ligand DHT) is reported as 1.75. Also, on androgen receptor [3] (yeast two-hybrid, ligand RU), the “ligand induced β-galactosidase activity, RU” value turned out to be 0.8. For the same molecule, on androgen receptor [3] (yeast two-hybrid, no ligand), the “ligand induced β-galactosidase activity, No Lig” value turned out to be 0.4989.

With SSNHQSSRLIELLSR (modifications not checked) [Phage # 4 (Table 2)], the phage ELISA grade in data set [4], in data set [5], in data set [6] and in data set [7] was 0 each time.
